In data set [1] the test system is Staphylococcus aureus. The data set is described as follows: Antibacterial activity against Staphylococcus aureus ATCC 25923 pretreated with 2.5% mouse serum followed by compound addition and measured after 6 hrs by broth microdilution method (reference value: 8 microM). Type of data set: functional.
The test system of data set [2] is Staphylococcus aureus. Briefly: Antibacterial activity against Staphylococcus aureus ATCC 25923 pretreated with Kcl followed by compound addition and measured after 2 hrs by broth microdilution method (reference value: 8 microM). Type of data set: functional. Background: Dilution methods test growth across graded concentrations, often in twofold steps.
The nature of data set [3]: Toxicity in male BALB/c mouse assessed as survival rate at 132.7 mg/kg, ip measured after 6 days relative to control. Type of data set: organism-based. As to conditions: in vivo, time 6 day.
Data set [4] has as its system Staphylococcus aureus. Briefly: Antibacterial activity against Staphylococcus aureus ATCC 25923 pretreated with Mgcl2 followed by compound addition and measured after 2 hrs by broth microdilution method (reference value: 8 microM). Type of data set: functional.
Data set [5] relates to Staphylococcus aureus. Briefly: Antibacterial activity against Staphylococcus aureus ATCC 25923 assessed as fold increase in MIC pretreated with FeCl3 followed by compound addition and measured after 2 hrs by broth microdilution method. Type of data set: functional.
The test system of data set [6] is Staphylococcus aureus. The data set is described as follows: Antibacterial activity against Staphylococcus aureus ATCC 25923 pretreated with 5% mouse serum followed by compound addition and measured after 6 hrs by broth microdilution method (reference value: 8 microM). Type of data set: functional.
The subject of data set [7] is Staphylococcus aureus. Briefly: Induction of morphological changes in Staphylococcus aureus ATCC 25923 assessed as increase in volume of swelling at 2 times MIC measured after 2 hrs by SEM based analysis. Type of data set: functional, organism-based.
Data set [8] can be described thus: Toxicity in male BALB/c mouse assessed as edema in kidney at 46.88 mg/kg, ip administered as single dose by H and E staining based analysis. The data set is classed as organism-based. The following applies: in vivo.
In data set [9] the test system is Staphylococcus aureus. Briefly: In vivo antibacterial activity against Staphylococcus aureus ATCC 25923 infected in BALB/c mouse model assessed as reduction in bacterial count in liver at 10 mg/kg, ip preadministered with compound for 1 hr followed by bacterial infection and measured after 6 hrs […]. The following applies: time 7.0 hrs. The data set is classed as functional, organism-based.

The nature of data set [10]: Toxicity in male BALB/c mouse assessed as inflammatory cell infiltration in kidney at 46.88 mg/kg, ip administered as single dose by H and E staining based analysis. The data set is classed as organism-based. As to conditions: in vivo.
The test system of data set [11] is Staphylococcus aureus. Briefly: Antibacterial activity against Staphylococcus aureus ATCC 25923 pretreated with 10% mouse serum followed by compound addition and measured after 6 hrs by broth microdilution method (reference value: 8 microM). The data set is classed as functional.
For data set [12], the system named is Staphylococcus aureus. Briefly: Antibacterial activity against Staphylococcus aureus ATCC 25923 pretreated with 2.5% mouse serum followed by compound addition and measured after 1 hr by broth microdilution method (reference value: 8 microM). Type of data set: functional.
Data set [13] relates to Pseudomonas aeruginosa. Briefly: Bactericidal activity against Pseudomonas aeruginosa ATCC 27853 assessed as assessed as eradication of bacterial cells at 2 to 4 times MIC measured after 0.5 hr by time killing analysis. Type of data set: functional, organism-based.
Data set [14] has as its system Cell membrane. Briefly: Induction of outer membrane permeabilization in Pseudomonas aeruginosa ATCC 27853 assessed increase in fluorescence intensity at 1 MIC measured upto 12 mins by fluorescence based NPN uptake assay. Type of data set: cell membranes.
For data set [15], the system named is Staphylococcus aureus. Briefly: Antibacterial activity against Staphylococcus aureus ATCC 25923 assessed as fold increase in MIC pretreated with 2.5 to 20% mouse serum followed by compound addition and measured after 1 hr by broth microdilution method. Type of data set: functional.
The subject of data set [16] is Staphylococcus aureus. The data set is described as follows: Antibacterial activity against Staphylococcus aureus ATCC 25923 pretreated with 2.5% mouse serum followed by compound addition and measured after 6 hrs by broth microdilution method (reference value: 64 microM). Type of data set: functional.
Data set [17] concerns Staphylococcus aureus. The data set is described as follows: Antibacterial activity against Staphylococcus aureus ATCC 25923 pretreated with Kcl followed by compound addition and measured after 2 hrs by broth microdilution method (reference value: 64 microM). The data set is classed as functional.
Data set [18] relates to Staphylococcus aureus. Briefly: Bactericidal activity against Staphylococcus aureus ATCC 25923 assessed as assessed as eradication of bacterial cells at 1/2 to 4 times MIC measured after 0.5 hr by time killing analysis. The data set is classed as functional, organism-based.
The test system of data set [19] is Staphylococcus aureus. The data set is described as follows: Antibacterial activity against Staphylococcus aureus ATCC 25923 pretreated with 10% mouse serum followed by compound addition and measured after 6 hrs by broth microdilution method (reference value: 64 microM). Type of data set: functional.
For data set [20], the system named is Pseudomonas aeruginosa. The data set is described as follows: Antibacterial activity against Pseudomonas aeruginosa ATCC 27853 assessed as fold increase in MIC pretreated with 2.5 to 20% mouse serum followed by compound addition and measured after 1 hr by broth microdilution method. Type of data set: functional.
The test system of data set [21] is Staphylococcus aureus. Briefly: Antibacterial activity against Staphylococcus aureus ATCC 25923 pretreated with Zncl2 followed by compound addition and measured after 2 hrs by broth microdilution method (reference value: 64 microM). The data set is classed as functional.
Data set [22] concerns Cell membrane. Briefly: Induction of outer membrane permeabilization in Pseudomonas aeruginosa ATCC 27853 assessed increase in fluorescence intensity at 1/2 MIC measured upto 12 mins by fluorescence based NPN uptake assay. The data set is classed as cell membranes.
The test system of data set [23] is Staphylococcus aureus. Briefly: Antibacterial activity against Staphylococcus aureus ATCC 25923 pretreated with 5% mouse serum followed by compound addition and measured after 6 hrs by broth microdilution method (reference value: 64 microM). Type of data set: functional.
The subject of data set [24] is Staphylococcus aureus. The data set is described as follows: Antibacterial activity against Staphylococcus aureus ATCC 25923 assessed as fold increase in MIC pretreated with Na-cl followed by compound addition and measured after 2 hrs by broth microdilution method. Type of data set: functional.
Data set [25] deals with Pseudomonas aeruginosa. Briefly: Antimicrobial activity against Pseudomonas aeruginosa ATCC 27853 assessed as reduction in microbial growth at 2 times MIC measured for 18 hrs in presence of 64 microg/ml LPS. The data set is classed as functional, organism-based.
For data set [26], the system named is Staphylococcus aureus. Briefly: Antibacterial activity against Staphylococcus aureus ATCC 25923 pretreated with Kcl followed by compound addition and measured after 2 hrs by broth microdilution method (reference value: 16 microM). Type of data set: functional, organism-based.
Data set [27] relates to Staphylococcus aureus. Briefly: Antibacterial activity against Staphylococcus aureus ATCC 25923 pretreated with 2.5% mouse serum followed by compound addition and measured after 6 hrs by broth microdilution method (reference value: 16 microM). The data set is classed as functional, organism-based.
The test system of data set [28] is Staphylococcus aureus. The data set is described as follows: Antibacterial activity against Staphylococcus aureus ATCC 25923 pretreated with 5% mouse serum followed by compound addition and measured after 1 hr by broth microdilution method (reference value: 16 microM). Type of data set: functional, organism-based.
In data set [29] the test system is Cell membrane. The data set is described as follows: Induction of outer membrane permeabilization in Pseudomonas aeruginosa ATCC 27853 assessed increase in fluorescence intensity measured after 12 mins by fluorescence based NPN uptake assay. The data set is classed as cell membranes.

Values after ≈ are worked out from the molar mass of the structure shown. Active and inactive are the calls of the source. No cut-off for these calls is given here. Bridge positions count the residues as written; N and C are the ends. Square brackets hold non-standard residues; d marks the D form. Peptide text beside a SMILES is read from it. * marks the point of attachment. ξ: configuration not given here. Hexanoyl(4ξ-Me) = CCC(C)CCC(=O)*; dOrn = NCCC[C@@H](N)C(=O)O; Orn = NCCC[C@H](N)C(=O)O

As to `CCCCCCCCCC(=O)N[C@H](CCCN)C(=O)N[C@H](Cc1ccc(O)cc1)C(=O)N[C@H](Cc1c[nH]c2ccccc12)C(=O)N[C@H](CCCN)C(=O)N[C@@H](CCCN)C(=O)NCC(=O)N[C@H](CCCN)C(=O)N[C@@H](Cc1c[nH]c2ccccc12)C(=O)N[C@H](C(=O)N[C@H](C(=O)NCC(=O)N[C@@H](CO)C(=O)O)[C@@H](C)CC)[C@@H](C)O`, the MIC (commonly the lowest concentration that inhibits growth of the organism) in the data set on Staphylococcus aureus [1] is 16 µM (≈ 25.3 µg/mL); in the data set with Staphylococcus aureus [2] it was 8 µM (≈ 12.6 µg/mL); in the data set on Staphylococcus aureus [4], 8 µM (≈ 12.6 µg/mL); in the data set with Staphylococcus aureus [6], 16 µM (≈ 25.3 µg/mL); in the data set with Staphylococcus aureus [11], 32 µM (≈ 50.6 µg/mL); with Staphylococcus aureus [12] it was 16 µM (≈ 25.3 µg/mL). In addition, the survival at 144 h in data set [3] is 0%. The “fold change (FC)” value in the data set with Staphylococcus aureus [5] is on record as 2. Besides, the result in the data set on Staphylococcus aureus [7] and in the data set with Staphylococcus aureus [9] was Active. The Activity result in [8] and in data set [10] was “Toxic” in each case.

Consider `CCC(C)CCC(=O)N[C@H](CC(N)=O)C(=O)N[C@H](Cc1ccc(O)cc1)C(=O)N[C@H](Cc1c[nH]c2ccccc12)C(=O)N[C@H](CCCN)C(=O)N[C@@H](CCCN)C(=O)NCC(=O)N[C@H](CCCN)C(=O)N[C@@H](Cc1c[nH]c2ccccc12)C(=O)N[C@@H]1C(=O)N[C@@H]([C@@H](C)CC)C(=O)NCC(=O)N[C@@H](CO)C(=O)O[C@@H]1C` (some centres undefined) ({Hexanoyl(4ξ-Me)}-[dN][dY][dW][dOrn][Orn]G[dOrn]WTIGS; ester 9-C), for which the result in the data set with Pseudomonas aeruginosa [13], with Cell membrane [14] and in the data set on Staphylococcus aureus [18] was Active. Moreover, the “fold change (FC)” value with Staphylococcus aureus [15], with Pseudomonas aeruginosa [20] and in the data set on Staphylococcus aureus [24] was 2 in each case. Moreover, the MIC stood at 128 µM (≈ 195 µg/mL) in the data set with Staphylococcus aureus [16]; 64 µM (≈ 97.3 µg/mL) with Staphylococcus aureus [17]; 128 µM (≈ 195 µg/mL) in the data set on Staphylococcus aureus [19]; 64 µM (≈ 97.3 µg/mL) in the data set with Staphylococcus aureus [21]; 128 µM (≈ 195 µg/mL) with Staphylococcus aureus [23]. The outcome in the data set on Cell membrane [22] and in the data set on Pseudomonas aeruginosa [25] was inactive.

As for POLYMYXIN B, the results for the MIC in the data set with Staphylococcus aureus [26], with Staphylococcus aureus [27] and with Staphylococcus aureus [28] were 8 µM, 16 µM and 16 µM, respectively. Moreover, the Activity entry in the data set on Cell membrane [29] is “Dose-Dependent Effect”.

These data come from ChEMBL document CHEMBL5512645, “A novel antimicrobial peptide with broad-spectrum and exceptional stability derived from the natural peptide Brevicidine” (Eur J Med Chem, 2024).
